Like-named read-outs stand apart in the source and are kept apart here.
What was measured:
Format in all cases: cell-based
[1] = test system: murine cytotoxic T-lymphocyte responses; assay: cells; details: for CTL activity (% specific ^51 Cr release): 90:1 effector to target
From the text: Immunosuppressive Activity of Vitamin D compounds on cytotoxic T lymphocyte Responses-General Test Description
Cytotoxic thymus-derived lymphocytes (CTL) constitute an important aspect of immune function and, as a result, play a key role in the rejection of grafted cells, tissues and organs. It is, therefore, essential to suppress CTL generation in a clinical situation in which CTL function is antithetical to the desired outcome as, for example, in transplantation. Cytotoxic T-lymphocytes have been studied for several years by many investigators and methods to evaluate CTL responses in vitro are well established.
As described below, CTL responses as affected by Vitamin D derivatives, were studied in vitro using cells from lab animals and human volunteers. Cytotoxic T-lymphocytes were generated from responder lymphoid cells in tissue culture medium during an incubation period of 6 days by exposure to foreign stimulator cells, i.e. from a genetically disparate source. A portion of the resultant effector cells were CTL capable of killing fresh cells related to the stimulator cells employed in the 6 day culture. To detect killing of cells by CTL, fresh target cells were incubated in excess ^51 chromium (as sodium chromate) until they were extensively labelled. Since target cells will retain the internalized radioisotope as long as they are viable but release the label when they are killed, CTL activity was assessed by quantitating the chromium released from target cells after a 4 or 18 hour incubation with CTL. Immunosuppression produced by Vitamin D derivatives was gauged as the ability to inhibit CTL responses during the initial incubation period relative to control cultures to which no Vitamin D derivative was added.
Female BALB/c By and C57BL/6 mice were obtained from Jackson Laboratories and were used between 8 and 10 weeks of age. Mice were given food and water ad libitum and were kept in a 12 hour light and 12 hour dark cycle.
For murine cultures, minimal essential medium with Hank's salts was supplemented to 1 millimolar with sodium pyruvate, to 0.1 millimolar with nonessential amino acids, to 2 millimolar with 1-glutamine, to 10% (v/v) with heat-inactivated fetal bovine serum, to 50 micrograms per ml with gentamicin, and to 1000 milligrams per liter with sodium bicarbonate and was used as tissue culture medium.
Stock solutions of Vitamin D derivatives were made in argon-saturated ethanol at a final concentration of 1×10^-2 molar, were covered with argon before sealing and were stored at -20° C. in the dark. Reduced lighting conditions were always employed when working with compounds. Compounds were diluted in tissue culture medium to 1×10^-4 molar and all subsequent dilutions were done in tissue culture medium containing 1% v/v ethanol. The final dilution into culture vessels was 1:10 thus keeping the vehicle concentration constant at 0.1% while varying the concentration of compound as tabulated in the results. For purposes of control, mixed leukocyte cultures were incubated in medium only (medium control) or in medium containing a final concentration of 0.1% ethanol (vehicle control).
Murine cytotoxic T-lymphocytes were generated in mixed leukocyte cultures by known methods. Specifically, single cell suspensions were prepared from spleens by gentle disruption in balanced salt solution (Hanks' balanced salt solution supplemented to 10%, v/v, with fetal bovine serum). After sedimentation on ice to remove particulate debris, cell suspensions were centrifuged at 400xg and were resuspended in fresh balanced salt solution. Cells to be used as stimulator cells were precluded from proliferating or generating cytotoxic T-lymphocytes by exposure to 1000 rads of gamma irradiation using a ^137 cesium source. […]

[2] = Viability / viable cell recovery of cultured murine cells (trypan blue dye exclusion); details: mouse, trypan blue exclusion
Procedure: (§1) Murine cytotoxic T-lymphocytes were generated in mixed leukocyte cultures by known methods. Specifically, single cell suspensions were prepared from spleens by gentle disruption in balanced salt solution (Hanks' balanced salt solution supplemented to 10%, v/v, with fetal bovine serum). After sedimentation on ice to remove particulate debris, cell suspensions were centrifuged at 400xg and were resuspended in fresh balanced salt solution. Cells to be used as stimulator cells were precluded from proliferating or generating cytotoxic T-lymphocytes by exposure to 1000 rads of gamma irradiation using a ^137 cesium source. […] Unless otherwise indicated, mixed leukocyte cultures were incubated at 37° C. for 6 days in a humidified atmosphere of 5% CO2 in air. The murine cytotoxic T-lymphocyte assay was conducted as follows. […] Cell pellets were resuspended in tissue culture medium and viable cells were enumerated by microscopy after exposure to trypan blue. Percent viability was calculated according to the formula: [formula] During the mixed leukocyte culture phase of the murine tests, three each of medium control and vehicle control cultures were included; each being assayed separately for cell viability and CTL activity. Unless otherwise indicated, single cultures were used to test for the effect of a particular concentration of any Vitamin D derivative. Moreover, cell viability was generally assessed only from control cultures; the resultant mean values being used to prepare desired viable effector cell concentrations from all cultures. The results for control cultures are expressed as the mean from replicate mixed leukocyte cultures±standard deviation thus establishing the between-culture variability inherent to any particular experiment. That changes in CTL activity were compound-induced was evidenced by dose-dependent changes in CTL activity measured from single cultures which exceeded the variability of the test system. […] The data shown in Table II below address this point. […] | ^b The viability of cells from each culture was determined by trypan

cultured murine cells = assay: as above; details: immunosuppressive concentrations
Procedure: as §1

## C=C1/C(=C\C=C2/CCC[C@]3(C)[C@@H]([C@H](C)/C=C/[C@H](C)C(C)(C)O)CC[C@@H]23)C[C@@H](O)C[C@@H]1O [1α,25-(OH)2 --D2, 1α,25-Dihydroxyergocalciferol]
[1]
  suppression of murine cytotoxic T-lymphocyte responses (in words): suppress murine cytotoxic T-lymphocyte responses
[1]; Mus musculus, T-lymphocyte, Table I, 1 × 10^-5 molar, vs vehicle control, read-out: Inhibition of CTL activity (%)
  inhibition at 10 µM: 91%
[1]; Mus musculus, T-lymphocyte, Table I, 1 × 10^-6 molar, vs vehicle control, read-out: Inhibition of CTL activity (%)
  inhibition at 1 µM: 63%
[1]; Mus musculus, T-lymphocyte, Table I, 1 × 10^-7 molar, vs vehicle control, read-out: Inhibition of CTL activity (%)
  inhibition at 0.1 µM: 48%
[1]; Mus musculus, T-lymphocyte, Table I, 1 × 10^-8 molar, vs vehicle control, read-out: Inhibition of CTL activity (%)
  inhibition at 0.01 µM: 40%
[1]; Mus musculus, T-lymphocyte, Table I, 1 × 10^-9 molar, vs vehicle control, read-out: Inhibition of CTL activity (%)
  inhibition at 0.001 µM: 20%
[1]; Mus musculus, T-lymphocyte, Table I, 1 × 10^-10 molar, vs vehicle control, read-out: Inhibition of CTL activity (%)
  inhibition at 0.0001 µM: 3%
[1]; Mus musculus, T-lymphocyte, Table II, 1 × 10^-6 molar, vs vehicle, read-out: Inhibition of CTL activity (%)
  inhibition at 1 µM: 56%
[1]; Mus musculus, T-lymphocyte, Table II, 1 × 10^-7 molar, vs vehicle, read-out: Inhibition of CTL activity (%)
  inhibition at 0.1 µM: 56%
[1]; Mus musculus, T-lymphocyte, Table II, 1 × 10^-8 molar, vs vehicle, read-out: Inhibition of CTL activity (%)
  inhibition at 0.01 µM: 37%
[1]; Mus musculus, T-lymphocyte, Table II, 1 × 10^-9 molar, vs vehicle, read-out: Inhibition of CTL activity (%)
  inhibition at 0.001 µM: 20%
[1]; Mus musculus, T-lymphocyte, Table II, 1 × 10^-10 molar, vs vehicle, read-out: Inhibition of CTL activity (%)
  inhibition at 0.0001 µM: 20%
[1]; Table I, 1 × 10^-5 molar
  CTL activity (% specific ^51 Cr release): 5 % specific ^51 Cr release
[1]; Table I, 1 × 10^-6 molar
  CTL activity (% specific ^51 Cr release): 20 % specific ^51 Cr release
[1]; Table I, 1 × 10^-7 molar
  CTL activity (% specific ^51 Cr release): 28 % specific ^51 Cr release
[1]; Table I, 1 × 10^-8 molar
  CTL activity (% specific ^51 Cr release): 32 % specific ^51 Cr release
[1]; Table I, 1 × 10^-9 molar
  CTL activity (% specific ^51 Cr release): 43 % specific ^51 Cr release
[1]; Table I, 1 × 10^-10 molar
  CTL activity (% specific ^51 Cr release): 52 % specific ^51 Cr release
[1]; Table II, 1 × 10^-6 molar
  CTL activity (% specific ^51 Cr release): 21 % specific ^51 Cr release
[1]; Table II, 1 × 10^-7 molar
  CTL activity (% specific ^51 Cr release): 21 % specific ^51 Cr release
[1]; Table II, 1 × 10^-8 molar
  CTL activity (% specific ^51 Cr release): 30 % specific ^51 Cr release
[1]; Table II, 1 × 10^-9 molar
  CTL activity (% specific ^51 Cr release): 38 % specific ^51 Cr release
[1]; Table II, 1 × 10^-10 molar
  CTL activity (% specific ^51 Cr release): 38 % specific ^51 Cr release
[2]
  viability at 0.0001 µM: 57%
  viability at 0.001 µM: 58%
  viability at 0.01 µM: 57%
  viability at 0.1 µM: 57%
  viability at 1 µM: 57%
Cultured murine cells
  toxicity to cultured murine cells (in words): not toxic to cultured murine cells

Source: patent publication US4749710A, “Immunosuppressive agents” (priority 1985, dated 1988)
